In US9120749B2, “Quinoline derivatives and MELK inhibitors containing the same” (ONCOTHERAPY SCIENCE, INC., priority 2010, dated 2015):
Counter-ions that a name gives are not always drawn.

What was measured:
MELK = MELK (Homo sapiens, UniProt Q14680); experiment: Kinase assay: MELK activity, phosphorylation of FITC-labeled histone H3 peptide measured by IMAP fluorescence polarization; assay type: biochemical; details: read-out: IC50 (μM) (kinase assay)
Summary of the method: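 Kinase reactions ran with or without test compound (final DMSO 1%) on a fluorescein-tagged H3 peptide. Progressive binding solution was added to terminate them. After a half-hour room-temperature incubation, polarization was measured.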

T47D cells = experiment: Cell-based assay: anti-proliferative activity, Cell Counting Kit-8, 72 hours (T47D); details: Homo sapiens, T47D, 72 h
Summary of the method: (§1)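 First, lysates underwent western blotting with anti-MELK antibody to establish expression. Next, cells went into 96-well plates. Then candidate inhibitors were added. Finally, viability was determined by CCK-8 at 72 h and IC50 computed.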

A549 cells = experiment: Cell-based assay: anti-proliferative activity, Cell Counting Kit-8, 72 hours (A549); details: Homo sapiens, A549, 72 h, 72 hours
Summary of the method: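 A549 cells seeded in 96-well plates and exposed to candidate inhibitors for 72 hours. Growth measured with Cell Counting Kit-8; IC50 values calculated from the dose response.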

HT-1197 cells = experiment: Cell-based assay: anti-proliferative activity, Cell Counting Kit-8, 72 hours (HT-1197, negative control without MELK expression); details: HT1197 cells (negative control, no MELK expression), 72 hours
Summary of the method: as §1

DU4475 cells = experiment: Cell-based assay: anti-proliferative activity, Cell Counting Kit-8, 72 hours (DU4475); details: Homo sapiens, DU-4475, 72 h

MELK, sequence (Q14680 whole entry, looked up): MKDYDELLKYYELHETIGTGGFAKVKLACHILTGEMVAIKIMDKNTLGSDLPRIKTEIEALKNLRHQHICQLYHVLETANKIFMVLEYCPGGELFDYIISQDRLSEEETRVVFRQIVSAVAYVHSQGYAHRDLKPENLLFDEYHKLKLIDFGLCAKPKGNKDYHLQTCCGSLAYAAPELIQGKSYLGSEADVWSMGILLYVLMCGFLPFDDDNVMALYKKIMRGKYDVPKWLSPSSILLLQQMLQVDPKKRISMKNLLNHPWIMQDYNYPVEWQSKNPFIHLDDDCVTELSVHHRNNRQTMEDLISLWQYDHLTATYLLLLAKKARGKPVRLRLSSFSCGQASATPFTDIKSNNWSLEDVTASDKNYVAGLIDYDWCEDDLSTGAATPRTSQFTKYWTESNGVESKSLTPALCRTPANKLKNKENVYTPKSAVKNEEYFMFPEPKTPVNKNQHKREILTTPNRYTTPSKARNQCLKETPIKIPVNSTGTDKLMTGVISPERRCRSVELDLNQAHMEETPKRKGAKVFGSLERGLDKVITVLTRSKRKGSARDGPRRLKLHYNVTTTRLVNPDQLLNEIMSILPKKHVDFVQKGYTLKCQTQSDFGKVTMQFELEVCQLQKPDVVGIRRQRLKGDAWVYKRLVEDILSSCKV

Row | SMILES | IC50 (MELK) [µM] | IC50 (T47D cells) [µM] | IC50 (A549 cells) [µM] | IC50 (HT-1197 cells; Homo sapiens, HT1197, 72 h) [µM] | IC50 (DU4475 cells) [µM] | IC50 (HT-1197 cells) [µM]
1 | O=C(c1cnc2ccc(-c3cc(Cl)c(O)c(Cl)c3)cc2c1Nc1ccc(NCCO)nc1)C1CC1 [Example 678, cyclopropyl(6-(3,5-dichloro-4-hydroxyphenyl)-4-(6-(2-hydroxyethylamino)pyridin-3-ylamino)quinolin-3-yl)methanone] | 0.011 | 0.41 | 1.2 | 5.1 | 0.11 | 
2 | CC(=O)c1cnc2ccc(-c3cc(F)c(O)c(F)c3)cc2c1N[C@H]1CC[C@H](CN(C)C)CC1 [Example 721] | 0.035 | 0.15 | 0.32 | 3.4 | 0.22 | 
3 | N[C@H]1CC[C@H](n2cc(Nc3c(C(=O)C4CC4)cnc4ccc(-c5cc(Cl)c(O)c(Cl)c5)cc34)cn2)CC1 [Example 706, (4-((1-(trans-4-aminocyclohexyl)-1H-pyrazol-4-yl)amino)-6-(3,5-dichloro-4-hydroxyphenyl)quinolin-3-yl)(cyclopropyl)methanone dihydrochloride] | 0.0011 | 0.042 | 0.59 | 7.9 | 0.02 | 
4 | CC(=O)c1cnc2ccc(-c3cc(Cl)c(O)c(Cl)c3)cc2c1Nc1ccc(N2CCNCC2)nc1 [Example 702] | 0.0014 | 0.046 | 0.14 | 2.4 | 0.044 | 
5 | CN(C)C[C@]1(O)CC[C@@H](Nc2c(C(=O)C3CC3)cnc3ccc(-c4cc(Cl)c(O)c(Cl)c4)cc23)CC1 [Example 652, cyclopropyl(6-(3,5-dichloro-4-hydroxyphenyl)-4-((cis-4-((dimethylamino)methyl)-4-hydroxycyclohexyl)amino)quinolin-3-yl)methanone] | 0.0011 | 0.15 | 0.15 | 1.4 | 0.051 | 
6 | CN1CCN(Cc2ccc(Nc3c(C(=O)C4CC4)cnc4ccc(-c5cc(Cl)c(O)c(Cl)c5)cc34)cn2)CC1 [Example 682, cyclopropyl(6-(3,5-dichloro-4-hydroxyphenyl)-4-(6-((4-methylpiperazin-1-yl)methyl)pyridin-3-ylamino)quinolin-3-yl)methanone] | 0.018 | 0.55 | 0.7 | 14 | 0.32 | 
7 | COc1cc(-c2ccc3ncc(C(=O)C4CC4)c(Nc4ccc(CN5CCCC5)nc4)c3c2)cc(Cl)c1O [Example 659, (6-(3-chloro-4-hydroxy-5-methoxyphenyl)-4-(6-(pyrrolidin-1-ylmethyl)pyridin-3-ylamino)quinolin-3-yl)(cyclopropyl)methanone] | 0.013 | 0.6 | 0.32 | 7.3 | 0.28 | 
8 | COc1cc(-c2ccc3ncc(C(=O)C(C)C)c(Nc4ccc(CN(C)C)cc4)c3c2)cc(Cl)c1O [Example 640, 1-(6-(3-chloro-4-hydroxy-5-methoxyphenyl)-4-(4-((dimethylamino)methyl)phenylamino)quinolin-3-yl)-2-methylpropan-1-one] | 0.027 | 0.54 | 0.61 | 0.82 | 0.52 | 
9 | O=C(c1cnc2ccc(-c3cc(F)c(O)c(Cl)c3)cc2c1Nc1ccc(N2CCC(O)C2)nc1)C1CC1 (stereo not drawn) [Example 671, (6-(3-chloro-5-fluoro-4-hydroxyphenyl)-4-(6-(3-hydroxypyrrolidin-1-yl)pyridin-3-ylamino)quinolin-3-yl)(cyclopropyl)methanone] | 0.025 | 0.3 | 0.85 | 4.9 | 0.52 | 
10 | O=C(c1cnc2ccc(-c3cc(Cl)c(O)c(Cl)c3)cc2c1N[C@H]1CC[C@H](CNCCF)CC1)C1CC1 [Example 700] | 0.0015 | 0.47 | 0.47 | 2.2 | 0.25 | 
11 | O=C(c1cnc2ccc(-c3cc(Cl)c(O)c(Cl)c3)cc2c1Nc1ccc(CN2CCCC2)nc1)C1CC1 [Example 658, Cyclopropyl{6-(3,5-dichloro-4-hydroxyphenyl)-4-[6-(pyrrolidin-1-ylmethyl)pyridin-3-ylamino]quinolin-3-yl}methanone] | 0.0078 | 0.3 | 0.072 | 4.5 | 0.07 | 
12 | COc1cc(-c2ccc3ncc(C(=O)C(C)C)c(Nc4ccc(N5CCNCC5)nc4)c3c2)cc(Cl)c1O [Example 680, 1-(6-(3-chloro-4-hydroxy-5-methoxyphenyl)-4-(6-(piperazin-1-yl)pyridin-3-ylamino)quinolin-3-yl)-2-methylpropan-1-one] | 0.011 | 0.59 | 1.3 | 2.4 | 1 | 
13 | CC(=O)c1cnc2ccc(-c3cc(Cl)c(O)c(Cl)c3)cc2c1N[C@@H]1CC[C@@H](CN2CCN(C)CC2)C1 [Example 728, 1-(6-(3,5-dichloro-4-hydroxyphenyl)-4-((1R,3R)-3-((4-methylpiperazin-1-yl)methyl)cyclopentylamino)quinolin-3-yl)ethanone] | 0.0057 | 0.83 | 0.85 | 5.7 | 0.48 | 
14 | O=C(c1cnc2ccc(-c3cc(F)c(O)c(Cl)c3)cc2c1Nc1ccc(NC2CCNC2)nc1)C1CC1 (stereo not drawn) [Example 667, (6-(3-chloro-5-fluoro-4-hydroxyphenyl)-4-(6-(pyrrolidin-3-ylamino)pyridin-3-ylamino)quinolin-3-yl)(cyclopropyl)methanone] | 0.01 | 0.17 | 7.7 | 10 | 0.077 | 
15 | CC1(N)CCC(Nc2c(C(=O)C3CC3)cnc3ccc(-c4cc(Cl)c(O)c(Cl)c4)cc23)CC1 (stereo not drawn) [Example 638, [4-(4-Amino-4-methylcyclohexylamino)-6-(3,5-dichloro-4-hydroxyphenyl)quinolin-3-yl](cyclopropyl)methanone] | 0.0034 | 0.1 | 0.12 | 0.67 | 0.022 | 
16 | CN(C)C1CCN(C[C@H]2CC[C@H](Nc3c(C(=O)C4CC4)cnc4ccc(-c5cc(F)c(O)c(Cl)c5)cc34)CC2)C1 (stereo partly drawn) [Example 662] | 0.004 | 0.19 | 0.15 | 0.95 | 0.14 | 
17 | COc1cc(-c2ccc3ncc(C(C)=O)c(N[C@H]4CC[C@H](CCN(C)C)CC4)c3c2)cc(Cl)c1O [Example 738] | 0.0026 | 0.51 | 0.34 | 7.8 | 2.1 | 
18 | COc1cc(-c2ccc3ncc(C(C)=O)c(Nc4cccc(CCN(C)C)c4)c3c2)cc(Cl)c1O [Example 730, 1-(6-(3-chloro-4-hydroxy-5-methoxyphenyl)-4-(3-(2-(dimethylamino)ethyl)phenylamino)quinolin-3-yl)ethanone] | 0.0026 | 2.1 | 0.82 | 8 | 0.69 | 
19 | CN(C)CCc1cccc(Nc2c(C(=O)C3CC3)cnc3ccc(-c4cc(Cl)c(O)c(Cl)c4)cc23)c1 [Example 698, Cyclopropyl{6-(3,5-dichloro-4-hydroxyphenyl)-4-[3-(2-(dimethylamino)ethyl)phenylamino]quinolin-3-yl}methanone] | 0.0024 | 0.3 | 0.05 | 10 | 0.04 | 
20 | CC(=O)c1cnc2ccc(-c3cc(F)c(O)c(Cl)c3)cc2c1Nc1ccc(N2CCCC(N)C2)nc1 (stereo not drawn) [Example 732, 1-(4-(6-(3-aminopiperidin-1-yl)pyridin-3-ylamino)-6-(3-chloro-5-fluoro-4-hydroxyphenyl)quinolin-3-yl)ethanone] | 0.0017 | 0.0056 | 0.0094 |  | 0.0099 | 0.18
21 | COc1cc(-c2ccc3ncc(C(=O)C4CC4)c(NC4CCNCC4)c3c2)cc(Cl)c1O [Example 727, (6-(3-chloro-4-hydroxy-5-methoxyphenyl)-4-(piperidin-4-ylamino)quinolin-3-yl)(cyclopropyl)methanone] | 0.0034 | 0.37 | 0.19 | 1.1 | 0.14 | 
22 | O=C(c1cnc2ccc(-c3cc(F)c(O)c(Cl)c3)cc2c1Nc1ccc(NCCO)nc1)C1CC1 [Example 679, (6-(3-chloro-5-fluoro-4-hydroxyphenyl)-4-(6-(2-hydroxyethylamino)pyridin-3-ylamino)quinolin-3-yl)(cyclopropyl)methanone] | 0.03 | 0.23 | 1.3 | 3.7 | 0.12 | 
23 | COc1cc(-c2ccc3ncc(C(=O)C4CC4)c(NC4CCC(N5CC[C@@H](F)C5)CC4)c3c2)cc(Cl)c1O (stereo partly drawn) [Example 645, (R)-(6-(3-chloro-4-hydroxy-5-methoxyphenyl)-4-(4-(3-fluoropyrrolidin-1-yl)cyclohexylamino)quinolin-3-yl)(cyclopropyl)methanone] | 0.0062 | 0.45 | 0.33 | 2.2 | 0.29 | 
24 | CNC[C@H]1CC[C@H](Nc2c(C(=O)C3CC3)cnc3ccc(-c4cc(Cl)c(O)c(Cl)c4)cc23)CC1 [Example 685, cyclopropyl(6-(3,5-dichloro-4-hydroxyphenyl)-4-((trans-4-((methylamino)methyl)cyclohexyl)amino)quinolin-3-yl)methanone] | 0.0016 | 0.054 | 0.14 | 0.73 | 0.018 | 
